Measured values from PMC11767586, “Cuphea hookeriana: Phytochemical Profile and the Cosmeceutical and Dermatological Properties of Its Active Fraction from the Whole Plant” (Molecules, 2025).
≈ marks a conversion by molar mass, not a printed value.

Molecular target: T1, mushroom tyrosinase
T1 construct: gene PPO1
Assay: L-dopa oxidation, absorbance at […] nm
Type: biochemical
Details: L-dopa 2 mM stock, phosphate pH 6.8, 37 °C, 30 min; positive control

- IC50: 270 µg/mL (≈ 992 µM)
Structure (SMILES): OC[C@H]1O[C@H](Oc2ccc(O)cc2)[C@H](O)[C@@H](O)[C@@H]1O [α-arbutin]
